This is an account of results in patent US12428389B2, “Diarylamide compound and application thereof” (Sunshine Lake Pharma Co., Ltd., priority 2019, dated 2025).

In experiment [1] the target is T1, UT-B (Mus musculus, UniProt Q8VHL0).
T1 construct: endogenous in cells; host or cells: erythrocytes of C57 mice
T1 sequence (Q8VHL0 1-384): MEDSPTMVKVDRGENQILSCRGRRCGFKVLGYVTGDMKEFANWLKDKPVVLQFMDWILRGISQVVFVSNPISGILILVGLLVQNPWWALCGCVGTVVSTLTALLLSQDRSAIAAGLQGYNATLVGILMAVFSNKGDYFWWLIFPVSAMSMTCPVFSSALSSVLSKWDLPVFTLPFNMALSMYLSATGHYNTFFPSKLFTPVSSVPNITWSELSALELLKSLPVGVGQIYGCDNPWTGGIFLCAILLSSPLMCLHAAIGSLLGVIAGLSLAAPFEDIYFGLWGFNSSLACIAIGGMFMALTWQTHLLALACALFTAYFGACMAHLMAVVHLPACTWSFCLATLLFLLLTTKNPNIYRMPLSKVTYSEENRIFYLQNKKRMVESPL
As to the kind of experiment: erythrocyte lysis model, mouse erythrocytes. The experiment is classed as cell-based. The following applies: concentration when the erythrocyte lysis rate of mice was 50%. The procedure: (§1) Erythrocyte lysis rate was calculated:
(§2) The formula for calculating the lysis rate percentage of erythrocytes, wherein Atest was the absorbance value of the test well, Aneg was the absorbance value of the negative control well, and Apos was the absorbance value of the positive control well. Erythrocyte lysis rate was calculated by measuring absorption at a wavelength of 710 nm.
(§3) The erythrocytes of three species of human, rats (SD rats) and mice (C57 mice) were taken, and urea transporter inhibitors were preliminarily screened from the above screening compound library by using the erythrocyte urea transporter inhibitor screening model.

In experiment [2] the target is T2, UT-B (Rattus norvegicus, UniProt P97689).
T2 construct: endogenous in cells; host or cells: erythrocytes of SD rats
T2 sequence (P97689 1-384): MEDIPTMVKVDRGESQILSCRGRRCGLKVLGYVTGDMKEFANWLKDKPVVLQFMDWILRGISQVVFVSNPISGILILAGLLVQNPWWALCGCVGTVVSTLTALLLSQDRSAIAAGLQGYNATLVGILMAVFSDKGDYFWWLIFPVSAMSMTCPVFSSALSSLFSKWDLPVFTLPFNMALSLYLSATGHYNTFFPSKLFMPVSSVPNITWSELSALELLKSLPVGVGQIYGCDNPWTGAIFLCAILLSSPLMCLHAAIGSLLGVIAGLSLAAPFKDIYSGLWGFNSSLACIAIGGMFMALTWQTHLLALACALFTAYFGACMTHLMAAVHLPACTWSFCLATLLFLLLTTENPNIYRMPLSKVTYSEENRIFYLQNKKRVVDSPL
As to the kind of experiment: erythrocyte lysis model, rat erythrocytes. The experiment is classed as cell-based, rats. As to conditions: concentration when the erythrocyte lysis rate of rats was 50%; read-out: IC50 rats. As to the method:
as §1, §2, §3

In experiment [3] the target is T3, human UT-B (Homo sapiens, UniProt Q13336).
T3 construct: endogenous in cells; host or cells: human erythrocytes
T3 sequence (Q13336 1-389): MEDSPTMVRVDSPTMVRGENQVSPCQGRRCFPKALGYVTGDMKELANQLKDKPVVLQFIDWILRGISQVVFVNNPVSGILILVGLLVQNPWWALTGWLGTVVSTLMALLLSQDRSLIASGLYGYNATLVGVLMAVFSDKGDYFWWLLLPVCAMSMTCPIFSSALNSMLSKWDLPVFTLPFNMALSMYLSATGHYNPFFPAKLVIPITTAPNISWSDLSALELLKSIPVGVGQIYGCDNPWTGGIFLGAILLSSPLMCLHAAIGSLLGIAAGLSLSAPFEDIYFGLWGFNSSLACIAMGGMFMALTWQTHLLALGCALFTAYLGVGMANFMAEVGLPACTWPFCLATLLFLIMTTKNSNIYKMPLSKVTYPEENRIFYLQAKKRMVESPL
As to the kind of experiment: erythrocyte lysis model, human erythrocytes. The class given is cell-based. The procedure: as §1, §2, §3

The mark [4] stands for this setting: class of the IC50 to human UT-B, read-out: Activity level.
Where [5] appears, read: concentration when the erythrocyte lysis rate of human was 50%, read-out: IC50 human.

Where two headings read alike, the source gives them in different places. A value given as a limit tells only on which side of the number the result lay.

`CC(C)NC(=O)c1cccc(NC(=O)c2ccc([N+](=O)[O-])o2)c1` [Example 56, N-(3-(isopropylcarbamoyl)phenyl)-5-nitrofuran-2-carboxamide]: the IC50 in experiment [1] is 9.7 µM; in experiment [2], 1760 nM; in experiment [3] (setting [4]), below 10 µM; in experiment [3] (setting [5]), 3.94 µM.

With `CC(C)CNC(=O)c1cccc(NC(=O)c2ccc([N+](=O)[O-])o2)c1` [Example 57, N-(3-(isobutylcarbamoyl)phenyl)-5-nitrofuran-2-carboxamide], the IC50 in experiment [1] is 0.5 µM; in experiment [2], 90 nM; in experiment [3] (setting [4]) it was below 10 µM; in experiment [3] (setting [5]) it was 1.42 µM.

In the case of `O=C(NC1CCCCC1)c1cccc(NC(=O)c2ccc([N+](=O)[O-])o2)c1` [Example 58, N-(3-(cyclohexylcarbamoyl)phenyl)-5-nitrofuran-2-carboxamide], the IC50 in experiment [1] was 2.63 µM; in experiment [2], 900 nM; in experiment [3] (setting [4]), below 10 µM; in experiment [3] (setting [5]), 1.77 µM.

As to `O=C(NCc1ccccc1)c1cccc(NC(=O)c2ccc([N+](=O)[O-])o2)c1` [Example 59, N-(3-(benzylcarbamoyl)phenyl)-5-nitrofuran-2-carboxamide], the IC50 was 1.02 µM in experiment [1], 260 nM in experiment [2], below 10 µM in experiment [3] (setting [4]) and 0.49 µM in experiment [3] (setting [5]).

For `CN(C)CCNC(=O)c1cccc(NC(=O)c2ccc([N+](=O)[O-])o2)c1` [Example 60, N-(3-((2-dimethylaminoethyl)carbamoyl)phenyl)-5-nitrofuran-2-carboxamide], the IC50 is 0.74 µM in experiment [1], 210 nM in experiment [2], below 10 µM in experiment [3] (setting [4]) and 3.68 µM in experiment [3] (setting [5]).

Take `O=C(NCCN1CCOCC1)c1cccc(NC(=O)c2ccc([N+](=O)[O-])o2)c1` [Example 61, N-(3-((2-morpholinylethyl)carbamoyl)phenyl)-5-nitrofuran-2-carboxamide]: the IC50 in experiment [1] was 2.61 µM; in experiment [2], 1090 nM; in experiment [3] (setting [4]) it was below 10 µM; in experiment [3] (setting [5]), 0.54 µM.

Turning to `O=C(NCCCN1CCOCC1)c1cccc(NC(=O)c2ccc([N+](=O)[O-])o2)c1` [Example 62, N-(3-((3-morpholinylpropyl)carbamoyl)phenyl)-5-nitrofuran-2-carboxamide], the IC50 was 4.32 µM in experiment [1], 1410 nM in experiment [2], below 10 µM in experiment [3] (setting [4]) and 3.31 µM in experiment [3] (setting [5]).

`CNC(=O)c1cc(NC(=O)c2ccc([N+](=O)[O-])o2)ccc1C` [Example 63, N-(4-methyl-3-methylcarbamoylphenyl)-5-nitrofuran-2-carboxamide]: the IC50 was 1.23 µM in experiment [1], 1760 nM in experiment [2], below 10 µM in experiment [3] (setting [4]) and 1.7 µM in experiment [3] (setting [5]).

As for `CNC(=O)c1cc(C)cc(NC(=O)c2ccc([N+](=O)[O-])o2)c1` [Example 64, N-(5-methyl-3-methylcarbamoylphenyl)-5-nitrofuran-2-carboxamide], the IC50 was 2.79 µM in experiment [1], 320 nM in experiment [2], below 10 µM in experiment [3] (setting [4]) and 1.08 µM in experiment [3] (setting [5]).

For `CNC(=O)c1cc(F)cc(NC(=O)c2ccc([N+](=O)[O-])o2)c1` [Example 66, N-(5-fluoro-3-methylcarbomoylphenyl)-5-nitrofuran-2-carboxamide], the IC50 in experiment [1] was 2.22 µM; in experiment [2], 870 nM; in experiment [3] (setting [4]), below 10 µM; in experiment [3] (setting [5]) it was 3.29 µM.

With `CNC(=O)c1cc(NC(=O)c2ccc([N+](=O)[O-])o2)ccc1O` [Example 67, N-(4-hydroxy-3-methylcarbomoylphenyl)-5-nitrofuran-2-carboxamide], the IC50 is 2.66 µM in experiment [1], 1130 nM in experiment [2], below 10 µM in experiment [3] (setting [4]) and 2.61 µM in experiment [3] (setting [5]).

In the case of `CNC(=O)c1cc(NC(=O)c2ccc([N+](=O)[O-])o2)cc(C(=O)NC)c1` [Example 68, N^1,N^3-dimethyl-5-(5-nitrofuran-2-carboxamide) isophthalamide], the IC50 was 5.69 µM in experiment [1], 34300 nM in experiment [2], 20 to 80 µM in experiment [3] (setting [4]) and 22.8 µM in experiment [3] (setting [5]).

On to `CN1C(=O)c2ccc(NC(=O)c3ccc([N+](=O)[O-])o3)cc2C1=O` [Example 69, N-(2-methyl-1,3-dihydro-1,3-dioxo-2H-isoindol-5-yl)-5-nitrofuran-2-carboxamide], for which the IC50 in experiment [1] is 5.16 µM; in experiment [2], 2960 nM; in experiment [3] (setting [4]) it was 10 to 20 µM; in experiment [3] (setting [5]), 12.3 µM.

As to `CN(C)CC(=O)Nc1ccc(NC(=O)c2ccc([N+](=O)[O-])o2)cc1` [Example 71, N-(4-(2-dimethylamino)acetamidophenyl)-5-nitrofuran-2-carboxamide], the IC50 was 5.41 µM in experiment [1], 570 nM in experiment [2], below 10 µM in experiment [3] (setting [4]) and 1.25 µM in experiment [3] (setting [5]).

On to `O=C(CN1CCOCC1)Nc1ccc(NC(=O)c2ccc([N+](=O)[O-])o2)cc1` [Example 72, N-(4-(2-morpholinyl)acetamidophenyl)-5-nitrofuran-2-carboxamide], for which the IC50 in experiment [1] was 7.38 µM; in experiment [2], 2870 nM; in experiment [3] (setting [4]), below 10 µM; in experiment [3] (setting [5]), 3.05 µM.

`CN(C)CCC(=O)Nc1ccc(NC(=O)c2ccc([N+](=O)[O-])o2)cc1` [Example 73, N-(4-(3-dimethylamino)propionylaminophenyl)-5-nitrofuran-2-carboxamide]: the IC50 is 27.2 µM in experiment [1], 1300 nM in experiment [2], below 10 µM in experiment [3] (setting [4]) and 6.61 µM in experiment [3] (setting [5]).

For the compound `CN(C)CCNCC(=O)Nc1ccc(NC(=O)c2ccc([N+](=O)[O-])o2)cc1` [Example 74, N-(4-((2-dimethylamino)ethylamino)acetamidophenyl)-5-nitrofuran-2-carboxamide], the IC50 in experiment [1] is 9.59 µM; in experiment [2], 1240 nM; in experiment [3] (setting [4]) it was below 10 µM; in experiment [3] (setting [5]) it was 3.01 µM.

For the compound `CCOC(=O)c1cc(NC(=O)c2ccc([N+](=O)[O-])o2)[nH]n1` [Example 77, ethyl 5-(5-nitrofuran-2-carboxamide)-1H-pyrazole-3-carboxylate], the IC50 in experiment [1] is 11.5 µM; in experiment [2], 7810 nM; in experiment [3] (setting [4]), below 10 µM; in experiment [3] (setting [5]) it was 1.63 µM.

As for `CNC(=O)c1cccc(NC(=O)c2ccc(C(C)=O)o2)c1` [Example 78, 3-(5-acetyl-2-furoyl)carbamamide], the IC50 in experiment [1] is 0.52 µM; in experiment [2], 240 nM; in experiment [3] (setting [4]), below 10 µM; in experiment [3] (setting [5]), 0.13 µM.

As for `C#Cc1cccc(NC(=O)c2ccc([N+](=O)[O-])o2)c1` [Example 79, N-3-(ethynylphenyl)-5-nitrofuran-2-carboxamide], the IC50 was 4.94 µM in experiment [1], 1100 nM in experiment [2], below 10 µM in experiment [3] (setting [4]) and 0.82 µM in experiment [3] (setting [5]).

As for “N-(4-fluoro-3-methylcarbomoylphenyl)-5-nitrofuran-2-carboxamide [Example 65]”, the IC50 in experiment [1] was 4.38 µM; in experiment [2], 18300 nM; in experiment [3] (setting [4]), 20 to 80 µM; in experiment [3] (setting [5]), 23.9 µM.

Take “ethyl 2-acetamido-5-(5-nitrofuran-2-carboxamide) benzoate [Example 75]”: the IC50 in experiment [1] was 6.39 µM; in experiment [2], 4810 nM; in experiment [3] (setting [4]), below 10 µM; in experiment [3] (setting [5]), 0.37 µM.
